# Assay results as given in ChEMBL document CHEMBL3992554, “Incorporation of arginine mimetic residue into peptides for recognition of double stranded nucleic acid structure: Binding and aggregation studies” (Bioorg Med Chem, 2017).
# The source made the active and inactive calls. The calls are words filed in the database; no cut-off is given here. Peptide text beside a SMILES is read from it. * marks the point of attachment. Pyrrole2CO(5-CO-guanidino) = N=C(N)NC(=O)c1ccc(C(=O)*)[nH]1
# Columns and labels:
# [1] = Binding affinity to poly(rA).(rU) RNA duplex (unknown origin) in pH 7.4 sodium cacodylate buffer assessed as positive induced CD band at peptide to polynucleotide ratio of 0.4 by CD titration method
# [2] = Binding affinity to poly(dG-dC)2 DNA (unknown origin) in pH 7.4 sodium cacodylate buffer by UV-Visible titration method
# [3] = Aqueous solubility of the compound in water; format: physicochemical; conditions: buffer
# Bos taurus [4] = species on record: Bos taurus; experiment: Induction of calf thymus duplex DNA aggregation in pH 7.4 sodium cacodylate buffer at peptide to polynucleotide ratio of 0.5 by CD titration method
# [5] = Aggregation of the compound in water at 25 to 95 degC by UV-Visible titration method; format: physicochemical; conditions: buffer
# [6] = Binding affinity to poly(rA).(rU) RNA duplex (unknown origin) in pH 7.4 sodium cacodylate buffer at 5.35 uM by fluorimetric titration method
# Bos taurus [7] = species on record: Bos taurus; experiment: Binding affinity to calf thymus duplex DNA in pH 7.4 sodium cacodylate buffer by UV-Visible titration method
# [8] = Induction of poly(dA-dT)2 DNA aggregation (unknown origin) in pH 7.4 sodium cacodylate buffer at peptide to polynucleotide ratio of 0.5 by CD titration method
# [9] = Binding affinity to poly(rA).(rU) RNA duplex (unknown origin) in pH 7.4 sodium cacodylate buffer by UV-Visible titration method
# [10] = Binding affinity to poly(dG-dC)2 DNA (unknown origin) in pH 7.4 sodium cacodylate buffer assessed as positive induced CD band at peptide to polynucleotide ratio of 0.4 by CD titration method
# [11] = Binding affinity to poly(dA-dT)2 DNA (unknown origin) in pH 7.4 sodium cacodylate buffer by UV-Visible titration method
# Bos taurus [12] = species on record: Bos taurus; experiment: Binding affinity to calf thymus duplex DNA in pH 7.4 sodium cacodylate buffer assessed as change in melting temperature at peptide to polynucleotide ratio of 0.3 by thermal denaturation assay
# [13] = Induction of poly(dG-dC)2 DNA aggregation (unknown origin) in pH 7.4 sodium cacodylate buffer at peptide to polynucleotide ratio of 0.5 by CD titration method
# [14] = Binding affinity to poly(dA-dT)2 DNA (unknown origin) in pH 7.4 sodium cacodylate buffer assessed as change in melting temperature at peptide to polynucleotide ratio of 0.5 by thermal denaturation assay
# [15] = Binding affinity to poly(rA).(rU) RNA duplex (unknown origin) in pH 7.4 sodium cacodylate buffer assessed as change in melting temperature at peptide to polynucleotide ratio of 0.3 by thermal denaturation assay
# Bos taurus [16] = species on record: Bos taurus; experiment: Binding affinity to calf thymus duplex DNA in pH 7.4 sodium cacodylate buffer assessed as positive induced CD band at peptide to polynucleotide ratio of 0.4 by CD titration method
# [17] = Binding affinity to poly(dA-dT)2 DNA (unknown origin) in pH 7.4 sodium cacodylate buffer at 5.35 uM by fluorimetric titration method
# [18] = Binding affinity to poly(rA).(rU) RNA duplex (unknown origin) in pH 7.4 sodium cacodylate buffer assessed as change in melting temperature at peptide to polynucleotide ratio of 0.5 by thermal denaturation assay
# [19] = Induction of poly(rA).(rU) RNA duplex aggregation (unknown origin) in pH 7.4 sodium cacodylate buffer at peptide to polynucleotide ratio of 0.5 by CD titration method
# [20] = Binding affinity to poly(dA-dT)2 DNA (unknown origin) in pH 7.4 sodium cacodylate buffer assessed as change in melting temperature at peptide to polynucleotide ratio of 0.3 by thermal denaturation assay
# [21] = Chemical stability in water at +8 degC; format: physicochemical; conditions: buffer
# [22] = Binding affinity to poly(dA-dT)2 DNA (unknown origin) in pH 7.4 sodium cacodylate buffer assessed as positive induced CD band at peptide to polynucleotide ratio of 0.4 by CD titration method
# [23] = Binding affinity to poly(dG-dC)2 DNA (unknown origin) in pH 7.4 sodium cacodylate buffer at 5.35 uM by fluorimetric titration method
# Bos taurus [24] = species on record: Bos taurus; experiment: Binding affinity to calf thymus duplex DNA in pH 7.4 sodium cacodylate buffer assessed as change in melting temperature at peptide to polynucleotide ratio of 0.5 by thermal denaturation assay
# Bos taurus [25] = species on record: Bos taurus; experiment: Binding affinity to calf thymus duplex DNA in pH 7.4 sodium cacodylate buffer by ITC
# [26] = Binding affinity to poly(rA).(rU) RNA duplex (unknown origin) in pH 7.4 sodium cacodylate buffer by ITC
# [27] = Binding affinity to poly(dA-dT)2 DNA (unknown origin) in pH 7.4 sodium cacodylate buffer at peptide to polynucleotide ratio of 0.1 to 1.1 by CD titration method
# [28] = Binding affinity to poly(dA-dT)2 DNA (unknown origin) in pH 7.4 sodium cacodylate buffer by ITC
# [29] = Binding affinity to poly(dG-dC)2 DNA (unknown origin) in pH 7.4 sodium cacodylate buffer by ITC
# Bos taurus [30] = species on record: Bos taurus; experiment: Binding affinity to calf thymus duplex DNA in pH 7.4 sodium cacodylate buffer assessed as positive-negative bisignate ICD band at peptide to polynucleotide ratio of 0.2 to 1.3 by CD titration method
# [31] = Binding affinity to poly(dA-dT)2 DNA (unknown origin) in pH 7.4 sodium cacodylate buffer assessed as positive-negative bisignate ICD band at peptide to polynucleotide ratio of 0.1 to 1.7 by CD titration method
# [32] = Binding affinity to poly(dG-dC)2 DNA (unknown origin) in pH 7.4 sodium cacodylate buffer assessed as positive-negative bisignate ICD band at peptide to polynucleotide ratio of 0.1 to 1.7 by CD titration method
# [33] = Binding affinity to poly(rA).(rU) RNA duplex (unknown origin) in pH 7.4 sodium cacodylate buffer assessed as positive-negative bisignate ICD band at peptide to polynucleotide ratio of 0.1 to 1.7 by CD titration method
# [34] = Binding affinity to poly(dA-dT)2 DNA (unknown origin) in pH 7.4 sodium cacodylate buffer at peptide to polynucleotide ratio of 0.2 to 2.1 by CD titration method
# [35] = Binding affinity to poly(rA).(rU) RNA duplex (unknown origin) in pH 7.4 sodium cacodylate buffer at peptide to polynucleotide ratio of 0.2 to 2.4 by CD titration method
# Bos taurus [36] = species on record: Bos taurus; experiment: Binding affinity to calf thymus duplex DNA in pH 7.4 sodium cacodylate buffer at peptide to polynucleotide ratio of 0.2 to 2.1 by CD titration method
# [37] = Binding affinity to poly(dG-dC)2 DNA (unknown origin) in pH 7.4 sodium cacodylate buffer at peptide to polynucleotide ratio of 0.2 to 2.4 by CD titration method
# Bos taurus [38] = species on record: Bos taurus; experiment: Induction of calf thymus duplex DNA aggregation in pH 7.4 sodium cacodylate buffer at 0.3 to 1.5 equiv by dynamic light scattering
# [39] = Binding affinity to poly(rA).(rU) RNA duplex (unknown origin) in pH 7.4 sodium cacodylate buffer at peptide to polynucleotide ratio of 0.1 to 0.95 by CD titration method
# Bos taurus [40] = species on record: Bos taurus; experiment: Induction of calf thymus duplex DNA aggregation in pH 7.4 sodium cacodylate buffer at 0.3 to 0.5 equiv after 5 mins by atomic force microscopic method
# [41] = Binding affinity to poly(dA-dT)2 DNA (unknown origin) in pH 7.4 sodium cacodylate buffer at peptide to polynucleotide ratio of <0.4 by CD titration method
# [42] = Binding affinity to poly(dG-dC)2 DNA (unknown origin) in pH 7.4 sodium cacodylate buffer by fluorimetric titration method
# [43] = Binding affinity to poly(rA).(rU) RNA duplex (unknown origin) in pH 7.4 sodium cacodylate buffer by fluorimetric titration method
# [44] = Binding affinity to poly(dG-dC)2 DNA (unknown origin) in pH 7.4 sodium cacodylate buffer at peptide to polynucleotide ratio of 0.1 to 0.6 by CD titration method
# [45] = Binding affinity to poly(dA-dT)2 DNA (unknown origin) in pH 7.4 sodium cacodylate buffer by fluorimetric titration method
# Bos taurus [46] = species on record: Bos taurus; experiment: Binding affinity to calf thymus duplex DNA in pH 7.4 sodium cacodylate buffer at peptide to polynucleotide ratio of 0.1 to 0.5 by CD titration method
# [47] = Binding affinity to poly(dA-dT)2 DNA (unknown origin) in pH 7.4 sodium cacodylate buffer assessed as negative induced band at peptide to polynucleotide ratio of >0.8 by CD titration method
SMILES,log Ks [2],solubility [3],Activity [5],log Ks (Bos taurus [7]),log Ks [9],log Ks [11],ΔTm (Bos taurus [12]),ΔTm [14],ΔTm [15],ΔTm [18],ΔTm [20],Stability [21],ΔTm (Bos taurus [24]),also measured
N=C(N)NC(=O)c1ccc(C(=O)NCCCC[C@H](NC(=O)[C@H](CCCCNC(=O)c2ccc(C(=O)NC(=N)N)[nH]2)NC(=O)[C@H](CCCCNC(=O)c2ccc(C(=O)NC(=N)N)[nH]2)NC(=O)[C@@H](N)CCCCNC(=O)c2ccc(C(=O)NC(=N)N)[nH]2)C(N)=O)[nH]1 (H-K(Pyrrole2CO(5-CO-guanidino))K(Pyrrole2CO(5-CO-guanidino))K(Pyrrole2CO(5-CO-guanidino))K(Pyrrole2CO(5-CO-guanidino))-NH2),7.3,Soluble,Not Active,5.4,7,5.6,0 °C,0.5 °C,2.1 °C,2.4 °C,0.6 °C,Stable,0 °C,Activity [1]: Active; Activity (Bos taurus [4]): Active; Activity [6]: Active; Activity [8]: Active; Activity [10]: Active; Activity [13]: Active; Activity (Bos taurus [16]): Active; Activity [17]: Active; Activity [19]: Active; Activity [22]: Active; Activity [23]: Active
N=C(N)NCCC[C@H](NC(=O)[C@H](CCCNC(=N)N)NC(=O)[C@H](CCCNC(=N)N)NC(=O)[C@@H](N)CCCNC(=N)N)C(N)=O (H-RRRR-NH2),–,Soluble,Not Active,–,–,–,1.9 °C,5 °C,12.7 °C,15.3 °C,4.1 °C,Stable,2.7 °C,log Ks (Bos taurus [25]): 5.33 to 5.6; log Ks [26]: 5.54 to 5.6; Activity [27]: Active; log Ks [28]: 5.44 to 5.5; log Ks [29]: 5.42 to 5.5
N=C(N)NC(=O)c1ccc(C(=O)NCCCC[C@H](NC(=O)[C@H](CCCCNC(=O)c2ccc(C(=O)NC(=N)N)[nH]2)NC(=O)c2ccc(C(=O)NC(=N)N)[nH]2)C(N)=O)[nH]1,5.2,Soluble,Not Active,4.6,4.2,4.8,–,–,–,–,–,Stable,–,Activity (Bos taurus [30]): Active; Activity [31]: Active; Activity [32]: Active; Activity [33]: Active
N=C(N)NC(=O)c1ccc(C(=O)NCCCC[C@H](NC(=O)[C@@H](N)CCCCNC(=O)c2ccc(C(=O)NC(=N)N)[nH]2)C(N)=O)[nH]1,–,Soluble,Not Active,4.9,3.7,4.6,–,–,–,–,–,Stable,–,Activity [34]: Active; Activity [35]: Active; Activity (Bos taurus [36]): Active; Activity [37]: Active
N=C(N)NC(=O)c1ccc(C(=O)NCCCC[C@H](NC(=O)[C@H](CCCCN)NC(=O)[C@H](CCCCN)NC(=O)[C@@H](N)CCCCN)C(N)=O)[nH]1 (H-KKKK(Pyrrole2CO(5-CO-guanidino))-NH2),6.4,Soluble,Not Active,6.1,5.3,5.5,0.5 °C,4.9 °C,7.9 °C,11.1 °C,3.3 °C,Stable,2.6 °C,Activity (Bos taurus [38]): Active; Activity [39]: Active; Activity (Bos taurus [40]): Active; Activity [41]: Active; Activity [42]: Active; Activity [43]: Active; Activity [44]: Active; Activity [45]: Active; Activity (Bos taurus [46]): Active; Activity [47]: Active
